Experiment [1] addresses T1, Serine/threonine-protein kinase NLK (Homo sapiens) (UniProt Q9UBE8).
T1 sequence (whole entry): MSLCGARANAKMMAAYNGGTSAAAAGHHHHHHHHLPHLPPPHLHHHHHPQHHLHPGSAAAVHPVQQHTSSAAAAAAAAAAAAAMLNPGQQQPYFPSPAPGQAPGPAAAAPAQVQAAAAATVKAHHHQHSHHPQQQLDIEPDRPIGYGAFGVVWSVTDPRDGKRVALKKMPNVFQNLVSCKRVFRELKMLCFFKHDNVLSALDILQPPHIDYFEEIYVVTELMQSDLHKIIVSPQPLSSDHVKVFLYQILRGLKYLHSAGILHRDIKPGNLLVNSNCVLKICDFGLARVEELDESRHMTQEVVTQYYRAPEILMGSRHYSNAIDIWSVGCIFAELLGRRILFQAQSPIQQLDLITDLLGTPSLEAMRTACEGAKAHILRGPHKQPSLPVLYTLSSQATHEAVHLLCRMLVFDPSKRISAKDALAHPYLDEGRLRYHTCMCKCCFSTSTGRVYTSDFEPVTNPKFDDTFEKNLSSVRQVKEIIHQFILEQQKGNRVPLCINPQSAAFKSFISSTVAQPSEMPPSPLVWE
In words: Selectivity interaction (KinomeScan (DiscoverX)) EUB0001619a NLK. Particulars: at 1 µM.

Experiment [2] addresses T2, Serine/threonine-protein kinase 3 (Homo sapiens) (UniProt Q13188).
T2 sequence (whole entry): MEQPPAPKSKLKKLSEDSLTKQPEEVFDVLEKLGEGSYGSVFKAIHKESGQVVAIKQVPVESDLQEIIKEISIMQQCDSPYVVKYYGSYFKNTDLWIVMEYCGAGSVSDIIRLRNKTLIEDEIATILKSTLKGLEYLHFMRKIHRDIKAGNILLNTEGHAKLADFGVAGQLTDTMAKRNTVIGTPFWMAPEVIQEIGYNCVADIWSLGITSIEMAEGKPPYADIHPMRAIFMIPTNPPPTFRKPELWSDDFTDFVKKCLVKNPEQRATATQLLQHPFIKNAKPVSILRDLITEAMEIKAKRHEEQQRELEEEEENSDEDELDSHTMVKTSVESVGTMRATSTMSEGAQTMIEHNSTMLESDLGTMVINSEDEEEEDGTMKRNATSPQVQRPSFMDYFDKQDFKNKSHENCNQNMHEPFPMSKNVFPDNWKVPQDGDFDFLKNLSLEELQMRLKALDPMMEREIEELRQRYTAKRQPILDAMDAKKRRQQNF
Particulars: at 10 µM.

Experiment [3] has as its target T3, Mitogen-activated protein kinase kinase kinase 6 (Homo sapiens) (UniProt O95382).
T3 sequence (whole entry): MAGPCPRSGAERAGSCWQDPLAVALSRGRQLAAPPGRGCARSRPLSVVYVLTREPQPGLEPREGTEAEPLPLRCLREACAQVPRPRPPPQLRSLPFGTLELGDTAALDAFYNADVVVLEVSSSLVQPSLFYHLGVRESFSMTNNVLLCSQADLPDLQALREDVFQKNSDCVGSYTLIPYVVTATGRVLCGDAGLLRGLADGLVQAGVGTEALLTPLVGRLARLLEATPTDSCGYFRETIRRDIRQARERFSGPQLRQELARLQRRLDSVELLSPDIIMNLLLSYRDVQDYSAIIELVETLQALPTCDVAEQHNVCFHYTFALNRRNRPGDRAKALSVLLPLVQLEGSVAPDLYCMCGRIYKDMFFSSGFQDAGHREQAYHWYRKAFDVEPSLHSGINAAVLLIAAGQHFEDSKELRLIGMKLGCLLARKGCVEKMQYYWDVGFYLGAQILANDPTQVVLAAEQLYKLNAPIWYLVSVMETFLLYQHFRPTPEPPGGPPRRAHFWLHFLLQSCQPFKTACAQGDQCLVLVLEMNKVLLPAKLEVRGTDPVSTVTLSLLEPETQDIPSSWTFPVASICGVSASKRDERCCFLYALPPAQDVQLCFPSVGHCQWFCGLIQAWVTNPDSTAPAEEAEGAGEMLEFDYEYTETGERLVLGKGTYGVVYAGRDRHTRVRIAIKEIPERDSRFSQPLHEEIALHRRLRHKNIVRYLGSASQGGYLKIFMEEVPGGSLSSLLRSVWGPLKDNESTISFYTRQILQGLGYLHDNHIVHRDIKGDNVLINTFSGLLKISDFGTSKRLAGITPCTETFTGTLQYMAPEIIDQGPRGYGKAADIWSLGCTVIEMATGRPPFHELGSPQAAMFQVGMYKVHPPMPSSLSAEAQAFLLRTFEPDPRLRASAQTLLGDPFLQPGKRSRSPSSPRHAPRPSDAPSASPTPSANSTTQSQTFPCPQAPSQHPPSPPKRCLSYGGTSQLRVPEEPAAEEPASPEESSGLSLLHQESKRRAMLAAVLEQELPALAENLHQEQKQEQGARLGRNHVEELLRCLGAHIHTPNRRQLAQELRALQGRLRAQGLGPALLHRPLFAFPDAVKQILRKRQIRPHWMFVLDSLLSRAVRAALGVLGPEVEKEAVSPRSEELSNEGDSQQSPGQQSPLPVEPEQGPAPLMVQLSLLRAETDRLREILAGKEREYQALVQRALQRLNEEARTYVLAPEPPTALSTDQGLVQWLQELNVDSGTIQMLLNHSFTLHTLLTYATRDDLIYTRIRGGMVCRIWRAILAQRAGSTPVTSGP
Briefly: Selectivity interaction (Ambit KINOMEscan and KiNATiv profiling in Jurkat cells) EUB0000090b MAP3K6. The following applies: at 1 µM. Format: cell-based.

For experiment [4], the target named is Tyrosine-protein kinase JAK2 (Homo sapiens, UniProt O60674). In words: Selectivity interaction (KinomeScan (DiscoverX)) EUB0001049a JAK2. Particulars: at 1 µM.
Tyrosine-protein kinase JAK2, sequence (O60674 whole entry): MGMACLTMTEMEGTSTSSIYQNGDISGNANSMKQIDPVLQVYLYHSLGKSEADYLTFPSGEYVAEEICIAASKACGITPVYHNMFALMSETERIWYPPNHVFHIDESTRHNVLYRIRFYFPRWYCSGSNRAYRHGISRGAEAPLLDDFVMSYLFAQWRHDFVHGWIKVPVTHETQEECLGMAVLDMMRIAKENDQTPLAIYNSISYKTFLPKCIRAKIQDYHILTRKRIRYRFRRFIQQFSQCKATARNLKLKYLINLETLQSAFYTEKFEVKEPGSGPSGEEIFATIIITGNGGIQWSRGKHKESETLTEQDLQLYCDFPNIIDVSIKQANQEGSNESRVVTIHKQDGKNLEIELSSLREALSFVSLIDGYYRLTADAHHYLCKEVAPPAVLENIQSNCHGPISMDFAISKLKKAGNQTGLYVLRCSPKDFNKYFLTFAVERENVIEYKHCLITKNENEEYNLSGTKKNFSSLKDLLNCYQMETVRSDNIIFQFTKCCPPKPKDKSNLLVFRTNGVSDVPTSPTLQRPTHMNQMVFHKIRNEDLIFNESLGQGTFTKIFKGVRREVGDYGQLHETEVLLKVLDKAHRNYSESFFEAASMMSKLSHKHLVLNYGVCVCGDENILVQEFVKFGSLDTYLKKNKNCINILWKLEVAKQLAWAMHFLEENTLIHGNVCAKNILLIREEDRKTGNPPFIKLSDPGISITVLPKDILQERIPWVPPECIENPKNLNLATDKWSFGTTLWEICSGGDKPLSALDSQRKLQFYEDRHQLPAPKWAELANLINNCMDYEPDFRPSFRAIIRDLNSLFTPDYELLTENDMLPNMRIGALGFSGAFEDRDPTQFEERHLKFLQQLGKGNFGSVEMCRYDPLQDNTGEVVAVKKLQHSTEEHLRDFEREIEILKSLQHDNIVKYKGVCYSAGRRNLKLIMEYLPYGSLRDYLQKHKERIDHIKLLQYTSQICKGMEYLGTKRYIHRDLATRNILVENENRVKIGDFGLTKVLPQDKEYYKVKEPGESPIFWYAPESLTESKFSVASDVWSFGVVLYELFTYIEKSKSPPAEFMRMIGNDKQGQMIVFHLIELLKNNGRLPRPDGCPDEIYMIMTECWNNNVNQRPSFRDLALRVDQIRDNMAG
For experiment [5], the target named is Insulin receptor-related protein (Homo sapiens) (UniProt P14616). In words: Selectivity interaction (KinomeScan (DiscoverX)) EUB0000655a INSRR. The following applies: at 10 µM.
Insulin receptor-related protein (Homo sapiens), sequence (P14616 27-742 limits assumed): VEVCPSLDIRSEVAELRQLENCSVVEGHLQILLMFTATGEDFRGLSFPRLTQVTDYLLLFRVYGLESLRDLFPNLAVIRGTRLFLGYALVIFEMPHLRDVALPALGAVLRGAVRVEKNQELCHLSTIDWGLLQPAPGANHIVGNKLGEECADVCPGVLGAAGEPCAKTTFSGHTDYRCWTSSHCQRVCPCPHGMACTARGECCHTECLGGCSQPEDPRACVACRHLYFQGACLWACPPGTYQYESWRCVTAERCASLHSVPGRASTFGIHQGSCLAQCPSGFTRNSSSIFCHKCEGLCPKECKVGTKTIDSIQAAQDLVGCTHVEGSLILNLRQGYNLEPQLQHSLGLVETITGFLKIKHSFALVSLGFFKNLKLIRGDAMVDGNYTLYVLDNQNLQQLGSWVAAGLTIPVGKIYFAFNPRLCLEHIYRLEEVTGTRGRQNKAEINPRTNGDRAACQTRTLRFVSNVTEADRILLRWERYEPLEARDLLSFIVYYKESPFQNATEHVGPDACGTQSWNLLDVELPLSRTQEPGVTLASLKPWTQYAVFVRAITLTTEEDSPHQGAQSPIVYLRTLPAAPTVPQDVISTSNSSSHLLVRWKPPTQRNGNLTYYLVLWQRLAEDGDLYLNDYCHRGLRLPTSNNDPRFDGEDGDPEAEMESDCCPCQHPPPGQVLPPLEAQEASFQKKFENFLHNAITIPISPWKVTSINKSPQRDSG
Insulin receptor-related protein (Homo sapiens), sequence (P14616 747-1297 limits assumed): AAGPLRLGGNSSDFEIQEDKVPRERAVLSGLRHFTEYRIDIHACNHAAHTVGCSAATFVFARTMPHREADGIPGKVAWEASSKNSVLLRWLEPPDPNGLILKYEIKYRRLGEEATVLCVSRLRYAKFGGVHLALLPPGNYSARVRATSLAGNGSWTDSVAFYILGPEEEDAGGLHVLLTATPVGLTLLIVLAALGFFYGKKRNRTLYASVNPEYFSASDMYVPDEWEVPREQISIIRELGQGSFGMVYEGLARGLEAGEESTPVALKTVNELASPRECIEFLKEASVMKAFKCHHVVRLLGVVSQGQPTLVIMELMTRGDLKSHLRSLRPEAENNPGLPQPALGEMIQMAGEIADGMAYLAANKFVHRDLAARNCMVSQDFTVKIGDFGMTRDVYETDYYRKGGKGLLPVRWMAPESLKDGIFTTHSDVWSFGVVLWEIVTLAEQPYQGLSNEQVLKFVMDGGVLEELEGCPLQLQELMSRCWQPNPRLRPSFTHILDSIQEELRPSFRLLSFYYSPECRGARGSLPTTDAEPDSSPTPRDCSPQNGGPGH
The target of experiment [6] is Serine/threonine-protein kinase SIK2 (Homo sapiens) (UniProt Q9H0K1). Briefly: Selectivity interaction (KinomeScan (DiscoverX)) EUB0000092b SIK2. The following applies: at 10 µM.
Serine/threonine-protein kinase SIK2 (Homo sapiens), sequence (Q9H0K1 whole entry, looked up): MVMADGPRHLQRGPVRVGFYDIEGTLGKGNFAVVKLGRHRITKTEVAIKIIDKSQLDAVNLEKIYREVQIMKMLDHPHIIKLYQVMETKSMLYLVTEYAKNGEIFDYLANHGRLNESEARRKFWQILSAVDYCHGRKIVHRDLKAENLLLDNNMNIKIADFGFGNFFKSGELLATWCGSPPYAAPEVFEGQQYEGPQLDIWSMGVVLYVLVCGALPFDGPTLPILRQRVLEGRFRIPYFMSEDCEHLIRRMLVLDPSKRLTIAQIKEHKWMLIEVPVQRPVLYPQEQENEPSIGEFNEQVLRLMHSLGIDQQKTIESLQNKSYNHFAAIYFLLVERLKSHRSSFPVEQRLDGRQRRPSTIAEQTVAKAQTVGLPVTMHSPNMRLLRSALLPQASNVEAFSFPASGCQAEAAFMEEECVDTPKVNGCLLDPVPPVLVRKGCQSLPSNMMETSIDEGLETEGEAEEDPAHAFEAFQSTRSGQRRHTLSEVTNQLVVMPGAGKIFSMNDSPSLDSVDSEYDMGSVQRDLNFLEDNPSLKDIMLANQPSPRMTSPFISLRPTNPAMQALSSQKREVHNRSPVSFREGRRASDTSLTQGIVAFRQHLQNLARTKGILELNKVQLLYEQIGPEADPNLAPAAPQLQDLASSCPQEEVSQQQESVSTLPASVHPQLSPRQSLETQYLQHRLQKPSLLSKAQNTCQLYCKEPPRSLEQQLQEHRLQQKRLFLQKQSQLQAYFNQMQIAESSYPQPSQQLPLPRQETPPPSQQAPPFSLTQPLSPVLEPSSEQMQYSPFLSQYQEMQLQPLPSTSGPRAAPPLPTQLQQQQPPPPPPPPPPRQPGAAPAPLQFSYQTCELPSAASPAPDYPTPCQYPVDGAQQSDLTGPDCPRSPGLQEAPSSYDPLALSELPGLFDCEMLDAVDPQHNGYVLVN
The target in experiment [7] is G protein-coupled receptor kinase 5 (Homo sapiens, UniProt P34947). Briefly: Selectivity interaction (Kinase panel (DSF assay)) EUB0001558a GRK5. (In DSF a fluorescence change marks the thermal transition of the protein.)
G protein-coupled receptor kinase 5, sequence (P34947 whole entry, looked up): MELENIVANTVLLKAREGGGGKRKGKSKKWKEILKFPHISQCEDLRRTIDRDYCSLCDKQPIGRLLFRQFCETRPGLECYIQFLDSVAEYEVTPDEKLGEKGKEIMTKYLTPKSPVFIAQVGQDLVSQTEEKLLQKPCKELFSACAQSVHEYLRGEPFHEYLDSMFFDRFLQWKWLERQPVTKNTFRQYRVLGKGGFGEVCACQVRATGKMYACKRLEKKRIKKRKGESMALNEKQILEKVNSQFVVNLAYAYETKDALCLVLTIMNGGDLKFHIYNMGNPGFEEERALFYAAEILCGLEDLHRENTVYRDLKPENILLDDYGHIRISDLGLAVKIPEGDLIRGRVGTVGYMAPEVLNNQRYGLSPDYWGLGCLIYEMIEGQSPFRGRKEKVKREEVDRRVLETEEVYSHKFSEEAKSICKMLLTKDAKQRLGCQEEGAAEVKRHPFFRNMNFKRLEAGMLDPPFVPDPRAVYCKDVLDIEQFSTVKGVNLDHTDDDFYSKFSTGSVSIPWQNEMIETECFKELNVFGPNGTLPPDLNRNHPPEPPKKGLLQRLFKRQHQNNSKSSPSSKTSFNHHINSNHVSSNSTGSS
The target of experiment [8] is Ribosomal protein S6 kinase beta-1 (Homo sapiens, UniProt P23443). Briefly: Selectivity interaction (KinomeScan (DiscoverX)) EUB0001079a RPS6KB1. The following applies: at 1 µM.
Ribosomal protein S6 kinase beta-1, sequence (P23443 whole entry, looked up): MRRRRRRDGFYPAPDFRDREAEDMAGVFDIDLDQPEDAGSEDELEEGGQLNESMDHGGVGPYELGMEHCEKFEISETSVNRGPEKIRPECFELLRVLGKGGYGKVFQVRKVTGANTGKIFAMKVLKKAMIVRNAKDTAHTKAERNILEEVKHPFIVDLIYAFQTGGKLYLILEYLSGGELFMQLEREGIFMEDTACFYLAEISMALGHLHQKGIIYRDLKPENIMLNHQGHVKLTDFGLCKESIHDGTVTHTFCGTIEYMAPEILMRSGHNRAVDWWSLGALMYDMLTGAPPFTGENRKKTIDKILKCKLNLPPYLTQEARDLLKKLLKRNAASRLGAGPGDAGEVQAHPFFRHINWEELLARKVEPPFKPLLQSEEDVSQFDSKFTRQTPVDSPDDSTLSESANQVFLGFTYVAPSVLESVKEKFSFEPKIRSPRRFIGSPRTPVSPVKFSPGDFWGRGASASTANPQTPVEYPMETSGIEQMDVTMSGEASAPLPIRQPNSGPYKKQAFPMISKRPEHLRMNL

Structures are written as SMILES.

Turning to `N#Cc1cccc(-c2c[nH]c3ncnc(N4CCOCC4)c23)c1`, in experiment [1], the % of control came to 85%. For the compound `CCN(CC)CCCCNc1ncc2cc(-c3cc(OC)cc(OC)c3)c(NC(=O)NC(C)(C)C)nc2n1`, the % of control in experiment [2] was 100%. Compound `CN(C)C/C=C/C(=O)Nc1ccc(C(=O)N2CCCC(Nc3ncc(Cl)c(-c4c[nH]c5ccccc45)n3)C2)cc1` (stereo not drawn) gave a % of control in experiment [3] of 100%. The compound `COc1cc(Nc2nc(C)cc(-c3cnn4nc(OC)ccc34)n2)cc(C(F)(F)F)c1` had a % of control in experiment [4] of 85%. `CN(C)CCOc1ccc(-c2nc(-c3ccncc3)c(-c3ccc4c(c3)CC/C4=N\O)[nH]2)cc1` displayed a % of control in experiment [5] of 100%. Take `CCC(=O)N1CCN(c2ccc(-n3c(=O)ccc4cnc5ccc(-c6cnc7ccccc7c6)cc5c43)cc2C(F)(F)F)CC1`: the % of control in experiment [6] stood at 23%. In the case of `CC(C)(O)[C@H](F)CN1Cc2cc(NC(=O)c3cnn4cccnc34)c(N3CCOCC3)cc2C1=O`, in experiment [7], the dTM amounted to 0.2 K. In experiment [8], `Nc1cnc(N2CCc3cc(S(=O)(=O)Nc4c(F)cc(Cl)cc4F)cc(N4CCCC4=O)c32)nc1` [TP-020n] returned a % of control of 83%.

The values above are taken from ChEMBL document CHEMBL5465560, “Selectivity Literature for EUbOPEN Chemogenomic Library” (2024).
